How the values were obtained:
Assay in all cases: relative viability (nuclei count vs DMSO), 5 days (fraction); higher = more cells survive
[1] = compound: Cc1ccc2nc(NCCN)c3ncc(C)n3c2c1
Procedure, shortened: (§1)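 On vehicle-anchored 1536-well plates, lung cancer cell lines held overnight at 37 °C were pinned with five library-drug doses (not always all listed) spaced by √10. With no medium change over 5 days, they were then fixed, permeabilised and Hoechst-stained in one step and imaged at 4×. MetaXpress counted nuclei, and viability is the median across plates of treated-well over vehicle-well nuclei. Acceptance needed control CV below 25% and at least one doubling.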

Salubrinal = compound: O=C(/C=C/c1ccccc1)NC(NC(=S)Nc1cccc2cccnc12)C(Cl)(Cl)Cl [Salubrinal]
Procedure, shortened: as §1

[2] = compound: Cc1ccc2nc(NCCN)c3ncc(C)n3c2c1 + Nc1ncn([C@H]2C[C@H](O)[C@@H](CO)O2)c(=O)n1 [Decitabine] (partner 2 µM)
Procedure, shortened: (§2)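 For relative viability, nuclei counts in treated wells were divided by those in vehicle wells. Lung cancer cell lines had been pin-tool dosed in 1536-well plates the day after seeding and cultured for 5 days, then fixed and stained in one step (final 0.05% Triton X-100, 1% formaldehyde, 1 ug/ml Hoechst) and imaged at 4×. Doses were one drug alone or a fixed anchor-drug dose plus five library-drug doses (not always all listed) in √10 steps, and values are duplicate-plate medians.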

[3] = compound: Cc1ccc2nc(NCCN)c3ncc(C)n3c2c1 + O=C(CCCCCCC(=O)Nc1ccccc1)NO [Vorinostat] (partner 1 µM)
Procedure, shortened: as §2

For UMC-11, the relative viability ([1]; 0.04 µM) was 1.01, the relative viability ([1]; 0.1265 µM) was 0.918 and the relative viability ([1]; 0.4 µM) was 0.939. The relative viability ([1]; 1.265 µM) was 0.965, the relative viability ([1]; 4 µM) was 0.946 and the relative viability (Salubrinal; 0.08 µM) was 0.901. For the same cell line, the relative viability (Salubrinal; 0.253 µM) was 0.869, the relative viability (Salubrinal; 0.8 µM) was 1.09 and the relative viability (Salubrinal; 2.53 µM) was 1.01. It also gave a relative viability (Salubrinal; 8 µM) of 1.03, a relative viability ([2]; first compound 0.04 µM) of 0.606 and a relative viability ([2]; first compound 0.1265 µM) of 0.432. It also gave a relative viability ([2]; first compound 0.4 µM) of 0.59, a relative viability ([2]; first compound 1.265 µM) of 0.679 and a relative viability ([2]; first compound 4 µM) of 0.624. For the same cell line, the relative viability ([3]; first compound 0.04 µM) was 0.421, the relative viability ([3]; first compound 0.1265 µM) was 0.344 and the relative viability ([3]; first compound 0.4 µM) was 0.372. It also gave a relative viability ([3]; first compound 1.265 µM) of 0.371 and a relative viability ([3]; first compound 4 µM) of 0.357.

Source: the supplement of paper PMC10307832
